Patent US20250235520A1, “METHODS FOR REVERSING A SUPPRESSED IMMUNE STATE TO INCREASE SURVIVAL IN A SUBJECT” (priority 2022, published 2025)

How the values were obtained:
[1] = tested on: breast cancer patients with tumors expressing HER2 (HER2 3+); test: Phase IIb trial (NCT00524277): disease free survival / recurrence; type: in vivo, human; details: HER2 3+ patients who completed the primary immunization series after trastuzumab; 5 years of follow-up
[2] = tested on: breast cancer patients with tumors expressing any degree of HER2; test: Phase IIb trial: injection site reactions (ISRs), orthogonal mean of largest perpendicular diameters; type: in vivo, human
Procedure: Background: Delayed type hypersensitivity (DTH) skin tests in the randomized, active-controlled, single-blinded, multicenter Phase IIb trial investigating GLSI-100 (GP2+GM-CSF) administered in the adjuvant setting to node-positive and high-risk node-negative breast cancer patients with tumors expressing any degree of HER2 (immuno-histochemistry [IHC] 1-3+) (NCT00524277) were analyzed. The trial enrolled HLA-A*02 patients randomized to receive GLSI-100 versus GM-CSF alone. The trial's primary objective was to determine if treatment with GLSI-100, a HER2-derived peptide, reduces recurrence rates.
Methods: Patients were randomized and received GLSI-100 (500 micrograms (mcg) GP2 and 125 mcg GM-CSF) or control (GM-CSF) via 6 intradermal injections every 3-4 weeks for the first 6 months and 4 booster injections every 6 months. The magnitude of injection site reactions, which occurred in almost all patients, were assessed for the 10 doses administered by measuring the largest perpendicular diameters and the resulting orthogonal mean.

| Substance | Kaplan-Meier estimated 5-year disease free survival (DFS) rate [1] [%] | median orthogonal mean induration ([2]; after a single dose) [mm] | patients with injection site reactions ([2]; all treated patients) [%] | difference in reactions, HER2 3+ control patients (Herceptin treated) smaller than HER2 1-2+ control patients ([2]; average over all 10 doses) [mm] | increase of injection site reactions by adding GP2 treatment ([2]; trastuzumab treated HER2 3+ patients vs GM-CSF control, average over all 10 doses) [mm] |
| --- | --- | --- | --- | --- | --- |
| GM-CSF: granulocyte macrophage colony-stimulating factor, adjuvant; control arm (called placebo) of the active-controlled trial | 89.4 | 7.8 | ~100 | 43.1 |  |
| Ile Ile Ser Ala Val Val Gly Ile Leu (IISAVVGIL) [GP2, 9 amino acid transmembrane peptide of the HER2/neu protein] |  |  |  |  | 39.2 |
